# Test results as given in patent US11535611B2, “Pyrazolo[3,4-B]pyridines and imidazo[1,5-B]pyridazines as PDE1 inhibitors” (H. Lundbeck A/S, priority 2017, dated 2022).
# Legend:
# Type in all cases: biochemical
# PDE1A = PDE1A (Homo sapiens (Human), UniProt P54750); test: PDE1 inhibition assay, PDE1A; settings: for inhibition at 1 µM: @ 1 μM compound; for IC50: 15 nM tritium labelled cAMP, 1 hr at room temperature, SPA beads
# Method: (§1) PDE1A, PDE1B and PDE1C assays were performed as follows: the assays were performed in 60 μL samples containing a fixed amount of the PDE1 enzyme (sufficient to convert 20-25% of the cyclic nucleotide substrate), a buffer (50 mM HEPES (4-(2-hydroxyethyl)-1-piperazineethanesulfonic acid) pH 7.6; 10 mM MgCl2; 0.02% Tween20), 0.1 mg/ml BSA (bovine serum albumin), 15 nM tritium labelled cAMP and varying amounts of inhibitors. Reactions were initiated by addition of the cyclic nucleotide substrate, and reactions were allowed to proceed for 1 hr at room temperature before being terminated through mixing with 20 μL (0.2 mg) yttrium silicate SPA beads (PerkinElmer). The beads were allowed to settle for 1 hour in the dark before the plates were counted in a Wallac 1450 Microbeta counter. The measured signals were converted to activity relative to an uninhibited control (100%) and IC50 values were calculated using XIFit (model 205, IDBS).
# PDE1B = PDE1B (Homo sapiens (Human), UniProt Q01064); test: PDE1 inhibition assay, PDE1B; settings: 15 nM tritium labelled cAMP, 1 hr at room temperature, SPA beads; read-out: PDE1 B, IC50
# Method: as §1
# PDE1C = PDE1C (Homo sapiens (Human), UniProt Q14123); test: PDE1 inhibition assay, PDE1C; settings: for inhibition at 1 µM: @ 1 μM compound, read-out: PDE1 C, % inhibition @ 1 μM; for IC50: 15 nM tritium labelled cAMP, 1 hr at room temperature, SPA beads, read-out: PDE1 C, IC50
# Method: as §1
# Chain of PDE1C (Q14123 whole entry): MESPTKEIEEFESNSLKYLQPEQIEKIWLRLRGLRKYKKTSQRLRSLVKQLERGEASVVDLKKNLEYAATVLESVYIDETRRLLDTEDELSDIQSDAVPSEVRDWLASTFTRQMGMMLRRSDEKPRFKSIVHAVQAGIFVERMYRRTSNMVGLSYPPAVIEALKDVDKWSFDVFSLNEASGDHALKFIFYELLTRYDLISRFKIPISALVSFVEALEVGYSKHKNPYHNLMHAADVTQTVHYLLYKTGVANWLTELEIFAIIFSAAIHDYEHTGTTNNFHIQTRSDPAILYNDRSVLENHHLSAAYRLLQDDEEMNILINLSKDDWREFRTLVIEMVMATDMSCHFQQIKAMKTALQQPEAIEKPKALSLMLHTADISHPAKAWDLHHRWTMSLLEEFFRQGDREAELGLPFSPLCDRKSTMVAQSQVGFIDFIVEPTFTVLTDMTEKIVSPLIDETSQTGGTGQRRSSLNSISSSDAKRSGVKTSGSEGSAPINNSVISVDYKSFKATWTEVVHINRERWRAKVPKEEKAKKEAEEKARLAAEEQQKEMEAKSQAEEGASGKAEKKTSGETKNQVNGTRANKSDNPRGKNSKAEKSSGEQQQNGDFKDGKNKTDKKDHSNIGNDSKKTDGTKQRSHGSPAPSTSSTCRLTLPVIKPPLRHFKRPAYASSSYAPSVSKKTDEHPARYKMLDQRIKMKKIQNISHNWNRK
# Chain of PDE1B (Q01064 whole entry): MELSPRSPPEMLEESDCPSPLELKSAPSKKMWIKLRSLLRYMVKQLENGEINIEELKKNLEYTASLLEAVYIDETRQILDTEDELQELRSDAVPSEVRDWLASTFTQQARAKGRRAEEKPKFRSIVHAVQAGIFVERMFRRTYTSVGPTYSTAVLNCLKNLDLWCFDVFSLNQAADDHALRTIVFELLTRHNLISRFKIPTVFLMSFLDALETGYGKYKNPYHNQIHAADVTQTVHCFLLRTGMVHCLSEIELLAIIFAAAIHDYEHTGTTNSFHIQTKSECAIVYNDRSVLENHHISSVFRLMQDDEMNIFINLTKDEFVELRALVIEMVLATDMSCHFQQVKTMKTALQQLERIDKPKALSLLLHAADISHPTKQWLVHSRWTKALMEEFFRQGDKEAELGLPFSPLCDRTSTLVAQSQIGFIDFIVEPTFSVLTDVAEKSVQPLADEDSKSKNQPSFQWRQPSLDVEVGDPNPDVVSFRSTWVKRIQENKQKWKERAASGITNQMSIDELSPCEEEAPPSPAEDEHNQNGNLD
# Chain of PDE1A (P54750 whole entry): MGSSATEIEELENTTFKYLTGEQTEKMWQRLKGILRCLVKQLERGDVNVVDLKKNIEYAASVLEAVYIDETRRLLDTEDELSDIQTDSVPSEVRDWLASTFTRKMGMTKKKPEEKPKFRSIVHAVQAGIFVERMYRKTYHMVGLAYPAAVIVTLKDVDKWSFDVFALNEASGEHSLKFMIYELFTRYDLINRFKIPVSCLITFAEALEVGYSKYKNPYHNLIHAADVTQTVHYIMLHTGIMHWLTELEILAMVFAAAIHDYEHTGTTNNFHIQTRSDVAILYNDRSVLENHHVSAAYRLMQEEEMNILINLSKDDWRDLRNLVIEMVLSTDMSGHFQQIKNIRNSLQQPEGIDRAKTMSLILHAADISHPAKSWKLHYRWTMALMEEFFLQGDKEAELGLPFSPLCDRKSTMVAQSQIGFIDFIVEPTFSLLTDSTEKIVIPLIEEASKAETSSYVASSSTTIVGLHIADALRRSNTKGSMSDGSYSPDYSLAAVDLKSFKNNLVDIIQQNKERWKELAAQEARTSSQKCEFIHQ
SMILES,inhibition at 1 µM (PDE1A) [%],IC50 (PDE1B) [nM],inhibition at 1 µM (PDE1C) [%],IC50 (PDE1A) [nM],IC50 (PDE1C) [nM],inhibition at 10 µM (PDE1A; @ 10 μM compound) [%]
"CCOc1ncccc1-c1cc(N2CCCC2)c2c(cnn2C2CCOC2)n1 (racemic) [Example 3, (±)-5-(2-ethoxy-3-pyridyl)-7-pyrrolidin-1-yl-1-tetrahydrofuran-3-yl-pyrazolo[4,3-b]pyridine]",27,550,29,,,
"CCOc1ncccc1-c1cc(NC2CCOC2)c2c(cnn2C2COC2)n1 (racemic) [Example 5, (±)-5-(2-ethoxy-3-pyridyl)-1-(oxetan-3-yl)-N-tetrahydrofuran-3-yl-pyrazolo[4,3-b]pyridin-7-amine]",47,447,20,,,
"CCOc1ncccc1-c1ccn2c(C3CCOC3)nc(C)c2n1 (racemic) [Example 81, (±)-2-(2-ethoxy-3-pyridyl)-8-methyl-6-tetrahydrofuran-3-yl-imidazo[1,5-a]pyrimidine]",,145,,1130,1630,
"CCOc1ncccc1-c1cc(N2CCC(C)(F)C2)c2c(cnn2C)n1 (racemic) [Example 87, (±)-5-(2-ethoxy-3-pyridyl)-7-(3-fluoro-3-methyl-pyrrolidin-1-yl)-1-methyl-pyrazolo[4,3-b]pyridine]",42,376,26,,,
"CCOc1ncccc1-c1cc(N[C@@H]2CCOC2)c2c(cnn2CC)n1 (single isomer, unassigned) [Example 20, 5-(2-ethoxy-3-pyridyl)-1-ethyl-N-[tetrahydrofuran-3-yl]pyrazolo[4,3-b]pyridin-7-amine]",,179,,467,957,
"CCCn1ncc2nc(-c3cccnc3OCC)cc(N[C@@H]3CCOC3)c21 (single isomer, unassigned) [Example 23, 5-(2-ethoxy-3-pyridyl)-1-propyl-N-[tetrahydrofuran-3-yl]pyrazolo[4,3-b]pyridin-7-amine]",,171,,481,2540,
"CCCn1ncc2nc(-c3cccnc3OCC)cc(N[C@@H]3CCOC3)c21 (single isomer, unassigned) [Example 24, 5-(2-ethoxy-3-pyridyl)-1-propyl-N-[tetrahydrofuran-3-yl]pyrazolo[4,3-b]pyridin-7-amine]",,177,,327,703,
"CCOc1ncncc1-c1cc(NC2CCOC2)c2c(cnn2C(C)C)n1 (stereo in doubt) [Example 50, 5-(4-ethoxypyrimidin-5-yl)-1-isopropyl-N-[(3R)-tetrahydrofuran-3-yl]pyrazolo[4,3-b]pyridin-7-amine]",,916,,3000,1810,
"CCOc1ncccc1-c1cc(N2CCCC2)c2c(n1)c(C)nn2C [Example 1, 5-(2-ethoxy-3-pyridyl)-1,3-dimethyl-7-pyrrolidin-1-yl-pyrazolo[4,3-b]pyridine]",70,170,49,,,
"CCOc1ncccc1-c1cc(NC2CCOC2)c2c(cnn2C2CCOC2)n1 (centres unmarked) [Example 2, 5-(2-ethoxy-3-pyridyl)-N,1-di(tetrahydrofuran-3-yl)pyrazolo[4,3-b]pyridin-7-amine]",13,445,,,403,
"CCOc1ncccc1-c1cc(NC[C@@H]2CCCO2)c2c(cnn2C(C)C)n1 [Example 6, 5-(2-ethoxy-3-pyridyl)-1-isopropyl-N-[[(2S)-tetrahydrofuran-2-yl]methyl]pyrazolo[4,3-b]pyridin-7-amine]",,111,,653,1390,
"CCOc1ncccc1-c1cc(N[C@@H]2CCCOC2)c2c(cnn2C(C)C)n1 [Example 8, 5-(2-ethoxy-3-pyridyl)-1-isopropyl-N-[(3R)-tetrahydropyran-3-yl]pyrazolo[4,3-b]pyridin-7-amine]",,423,,2160,2870,
"CCOc1ncccc1-c1cc(N[C@H]2CCCOC2)c2c(cnn2C(C)C)n1 [Example 9, 5-(2-ethoxy-3-pyridyl)-1-isopropyl-N-[(3S)-tetrahydropyran-3-yl]pyrazolo[4,3-b]pyridin-7-amine]",,295,,687,2700,
"CCOc1ncccc1-c1cc(NC2CCOCC2)c2c(cnn2C(C)C)n1 [Example 10, 5-(2-ethoxy-3-pyridyl)-1-isopropyl-N-tetrahydropyran-4-yl-pyrazolo[4,3-b]pyridin-7-amine]",,126,,,2660,71
"CCOc1ncccc1-c1cc(NC(C)C)c2c(cnn2C(C)C)n1 [Example 12, 5-(2-ethoxy-3-pyridyl)-N,1-diisopropyl-pyrazolo[4,3-b]pyridin-7-amine]",,108,,1120,2230,
"CCOc1ncccc1-c1cc(N2CCCC2)c2c(cnn2C)n1 [Example 14, 5-(2-ethoxy-3-pyridyl)-1-methyl-7-pyrrolidin-1-yl-pyrazolo[4,3-b]pyridine]",,640,,1090,3500,
"CCOc1ncccc1-c1nc2c(C)nn(CC)c2cc1C [Example 15, 5-(2-ethoxy-3-pyridyl)-1-ethyl-3,6-dimethyl-pyrazolo[4,3-b]pyridine]",,156,,1010,1890,
"CCOc1ncccc1-c1cc(N2CCCC2)c2c(cnn2CC)n1 [Example 16, 5-(2-ethoxy-3-pyridyl)-1-ethyl-7-pyrrolidin-1-yl-pyrazolo[4,3-b]pyridine]",,129,,461,1820,

# The next molecules have a lower IC50 (PDE1B) than those just listed; values first:
inhibition at 1 µM (PDE1A) [%],IC50 (PDE1B) [nM],inhibition at 1 µM (PDE1C) [%],IC50 (PDE1A) [nM],IC50 (PDE1C) [nM],inhibition at 10 µM (PDE1A; @ 10 μM compound) [%],SMILES
,95,56,641,,,"CCOc1ncccc1-c1cc(N2CCCC2)c2c(cnn2C2COC2)n1 [Example 4, 5-(2-ethoxy-3-pyridyl)-1-(oxetan-3-yl)-7-pyrrolidin-1-yl-pyrazolo[4,3-b]pyridine]"
,86,,326,3060,,"CCOc1ncccc1-c1cc(N[C@@H]2CCOC2)c2c(cnn2CC)n1 (single isomer, unassigned) [Example 19, 5-(2-ethoxy-3-pyridyl)-1-ethyl-N-[tetrahydrofuran-3-yl]pyrazolo[4,3-b]pyridin-7-amine]"
,85,,1030,1060,,"CCOc1ncccc1-c1cc(NC)c2c(cnn2C(C)C)n1 [Example 13, 5-(2-ethoxy-3-pyridyl)-1-isopropyl-N-methyl-pyrazolo[4,3-b]pyridin-7-amine]"
,83,,449,1710,,"CCOc1ncccc1-c1cc(NC[C@H]2CCCO2)c2c(cnn2C(C)C)n1 [Example 7, 5-(2-ethoxy-3-pyridyl)-1-isopropyl-N-[[(2R)-tetrahydrofuran-2-yl]methyl]pyrazolo[4,3-b]pyridin-7-amine]"
,83,50,353,,,"CCOc1ncccc1-c1cc(N2CCCC2)c2c(cnn2C(C)C)n1 [Example 17, 5-(2-ethoxy-3-pyridyl)-1-isopropyl-7-pyrrolidin-1-yl-pyrazolo[4,3-b]pyridine]"
,82,,575,1480,,"CCOc1ncccc1-c1cc(N[C@@H]2COC[C@H]2OC)c2c(cnn2C(C)C)n1 (relative stereo) [Example 11, 5-(2-ethoxy-3-pyridyl)-1-isopropyl-N-[trans-4-methoxytetrahydrofuran-3-yl]pyrazolo[4,3-b]pyridin-7-amine]"
,48,,,,,"CCOc1ncccc1-c1cc(N[C@H]2CCOC2)c2c(cnn2C(C)C)n1 (single isomer, unassigned) [Example 21, 5-(2-ethoxy-3-pyridyl)-1-isopropyl-N-[tetrahydrofuran-3-yl]pyrazolo[4,3-b]pyridin-7-amine]"
,33,,159,323,,"CCOc1ncccc1-c1ccn2c([C@H](C)CC)nc(C)c2n1 (single isomer, unassigned) [Example 84, 2-(2-ethoxy-3-pyridyl)-8-methyl-6-[1-methylpropyl]imidazo[1,5-a]pyrimidine]"
,32,,,,,"CCOc1ncccc1-c1cc(N[C@H]2CCOC2)c2c(cnn2C(C)C)n1 (single isomer, unassigned) [Example 22, 5-(2-ethoxy-3-pyridyl)-1-isopropyl-N-[tetrahydrofuran-3-yl]pyrazolo[4,3-b]pyridin-7-amine]"
,11,,70,106,,"CCOc1ncccc1-c1cc(NCC2CCC(=O)N2C)c2c(n1)c(C)nn2C(C)C (racemic) [Example 67, (±)-5-[[[5-(2-ethoxy-3-pyridyl)-1-isopropyl-3-methyl-pyrazolo[4,3-b]pyridin-7-yl]amino]methyl]-1-methyl-pyrrolidin-2-one]"
,9,,61,112,,"CCOc1ncccc1-c1ccn2c(C(C)CC)nc(C)c2n1 (racemic) [Example 76, (±)-2-(2-ethoxy-3-pyridyl)-8-methyl-6-sec-butyl-imidazo[1,5-a]pyrimidine]"
,6,,51,77,,"CCOc1ncccc1-c1ccn2c([C@H](C)CC)nc(C)c2n1 (single isomer, unassigned) [Example 83, 2-(2-ethoxy-3-pyridyl)-8-methyl-6-[1-methylpropyl]imidazo[1,5-a]pyrimidine]"
